Laboratory results as given in US20220235006A1, “PYRIDINE DERIVATIVES AS TMEM16A MODULATORS FOR USE IN THE TREATMENT OF RESPIRATORY CONDITIONS” (TMEM16A LIMITED, priority 2019, published 2022).
pEC50: −log10 of the molar value. ≈ marks a conversion by molar mass, not a printed value.

Columns and labels:
[1] = target: T1, human TMEM16A (TMEM16Aabc variant) (Homo sapiens, UniProt Q5XXA6, DEL476-501); assay: Automated whole-cell patch clamp (Qpatch) TMEM16A potentiator assay in recombinant FRT cells; format: cell-based; conditions: for activation at 3.33 µM: percentage increase of baseline TMEM16A current, minimum n = 2, read-out: % Potentiation @ 3.33 uM Avg; for pEC50: minimum n = 2
T1 sequence (Q5XXA6 with tags, fused parts or gaps isoform Q5XXA6-5 DEL539-564): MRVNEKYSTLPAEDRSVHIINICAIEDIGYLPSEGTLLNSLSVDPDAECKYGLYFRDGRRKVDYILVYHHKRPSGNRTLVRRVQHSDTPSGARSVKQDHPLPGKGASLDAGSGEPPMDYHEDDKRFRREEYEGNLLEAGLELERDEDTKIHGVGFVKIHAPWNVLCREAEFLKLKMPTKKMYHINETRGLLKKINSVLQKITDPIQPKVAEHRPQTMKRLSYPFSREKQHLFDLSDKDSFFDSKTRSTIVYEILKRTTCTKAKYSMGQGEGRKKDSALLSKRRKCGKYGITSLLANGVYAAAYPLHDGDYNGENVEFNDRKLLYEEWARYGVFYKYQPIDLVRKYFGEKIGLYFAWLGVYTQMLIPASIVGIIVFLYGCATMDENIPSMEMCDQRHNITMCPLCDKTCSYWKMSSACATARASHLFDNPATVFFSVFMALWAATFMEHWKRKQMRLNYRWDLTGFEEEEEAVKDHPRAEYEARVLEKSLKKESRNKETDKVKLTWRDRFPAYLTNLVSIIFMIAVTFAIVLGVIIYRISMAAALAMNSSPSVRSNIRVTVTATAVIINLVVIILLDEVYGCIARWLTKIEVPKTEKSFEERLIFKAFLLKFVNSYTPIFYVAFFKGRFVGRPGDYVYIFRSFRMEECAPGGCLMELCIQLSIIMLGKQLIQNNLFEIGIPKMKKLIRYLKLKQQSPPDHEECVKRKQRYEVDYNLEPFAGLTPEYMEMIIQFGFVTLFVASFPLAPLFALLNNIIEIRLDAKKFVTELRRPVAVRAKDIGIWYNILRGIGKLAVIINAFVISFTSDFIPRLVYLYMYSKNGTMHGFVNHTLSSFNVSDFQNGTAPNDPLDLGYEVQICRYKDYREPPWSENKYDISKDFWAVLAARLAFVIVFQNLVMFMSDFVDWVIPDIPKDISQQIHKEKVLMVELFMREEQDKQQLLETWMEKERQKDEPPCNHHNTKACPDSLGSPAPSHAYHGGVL
Procedure: Automated Whole-Cell Patch Clamp Assay to Detect TMEM16A Activity in Recombinant Cells
Fisher rat thyroid (FRT) cells stably expressing human TMEM16A (TMEM16Aabc variant; Dr Luis Galietta, Insituto Giannina, Italy) were cultured in T-75 flasks in Hams F-12 media with Coon's modification (Sigma) supplemented with 10% (v/v) foetal bovine serum, penicillin-streptomycin (10,000 U/mL/10000 μg/mL), G-418 (750 μg/mL), L-glutamine (2 mM) and sodium bicarbonate solution (7.5% v/v). At ˜90% confluence cells were harvested for experiments by detachment with a 2:1 (v/v) mixture of Detachin (BMS Biotechnology) and 0.25% (w/v) trypsin-EDTA.
FRT-TMEM16A cells were whole-cell patch clamped using an automated planar patch clamp system (Qpatch, Sophion). Briefly, once high resistance (GOhm) seals were established between the cells and the planar recording array the patch was ruptured using suction pulses to establish the whole-cell recording configuration of the patch clamp technique. The assay employed the following solutions (all reagents Sigma): Intracellular solution (mM): N-methyl-D-glucamine 130, CaCl2 18.2, MgCl2 1, HEPES 10, EGTA 10, BAPTA 20, Mg-ATP 2, pH 7.25, 325 mOsm with sucrose.
Extracellular solution (mM): N-methyl-D-glucamine 130, CaCl2 2, MgCl2 1, HEPES 10, pH 7.3, 320 mOsm with sucrose.
The intracellular solution buffers intracellular calcium at levels required to give ˜20% activation of the maximal TMEM16A mediated current (E020 for calcium ions). Cells were voltage clamped at a holding potential of −70mV and a combined voltage step (to +70 mV)/ramp (−90 my to +90 mV) was applied at 0.05 Hz. After a period of current stabilisation test compounds, solubilised in 100% (v/v) DMSO and subsequently diluted into extracellular solution, were applied to generate a cumulative concentration response curve. Each concentration of test compound was incubated for 5 minutes before addition of the next concentration. After the final concentration was tested a supramaximal concentration of either a known active positive modulator or the TMEM16A inhibitor, CaCCinhA01 (Del La Fuente et al, 2008) was added to define the upper and lower limits of the assay.
Compound activity was quantified by measuring the increase in current upon compound addition and expressing this as a percentage increase of baseline TMEM16A current level.
Peak TMEM16A current at +70 mV was plotted as a function of time over the assay period. Baseline current (IBL) was measured after a period of stabilisation. The increase in current for each compound addition was determined by taking the peak current during the incubation period and subtracting the current from the previous recording period and then expressing this as a percentage of the baseline current (% potentiation). For test compound concentration 1 in FIG. 1 this is:
For each additional concentration tested the increase in current was determined by subtracting the current from the previous incubation period and normalising the baseline value—for test concentration 2 in FIG. 1 this is:
The values for each test concentration were plotted as a cumulative function of concentration eg. for test concentration two this would be the sum of the peak changes measured during concentration one plus concentration two.

[2] = Kinetic solubility determination (high throughput); format: physicochemical; conditions: kinetic from dmso stock, sterile water, 5% DMSO, room temperature
Procedure: Test compounds (10 μL; 20 mM DMSO solution) were added to sterile water (190 μL) in triplicate and shaken at 300 rpm at room temperature. After 90 min. the test compounds were filtered by centrifuge (5 min. at 3000 rpm) to obtain the aqueous filtrate. Acetonitrile (20 μL) was dispensed into clean 96-well UV/VIS analysis plate and aqueous filtrate (80 μL) added and the plate analysed for test compound concentration using a Molecular Devices SPECTRAmax® plus microplate reader at the following wavelengths: (280, 300, 320, 340, 360, 800 nm). […] The diluted filtrate (80 μL) was then added to acetonitrile (20 μL) and the plate analysed. as previously.

[3] = Log D (pH7.4 shake flask); format: physicochemical; conditions: pH 7.4; 1-octanol/phosphate buffer shake flask; read-out: mLogD (pH 7.4)
Procedure: Phosphate buffer (1 M) was diluted to 20 mM with deionised water and adjusted to pH 7.4 with phosphoric acid or sodium hydroxide. 1-octanol and phosphate buffer (20 mM) were saturated overnight by tumbling. The two phases were separated using a separation funnel. 5 μL of 5 mM compound cassette was added to 495 μL of octanol-saturated buffer and 495 μL buffer saturated octanol in a 96-well plate (top concentration 50 μM). Plate was shaken for 1 h and centrifuged at 25° C. for 5 min. 200 μL of each phase was transferred to a separate plate. The octanol layer was sampled first to avoid cross contamination. 5 μL of the solutions were transferred to 495 μL of quench solution* (max concentration 0.5 μM). In addition, 40 μL of buffer solution was added to 360 μL of quench solvent (max concentration 5 μM). Samples were analysed by LC-MS/MS. Benchmarking against a calibration curve for each compound and with reference to the control compounds sulpride, diclofenac, chlorpromazine and tamoxifen. *Quench solution was a 1:3:1 mixture (v/v/v) of Acetonitrile containing 0.1% formic acid and imipramine/labetalol, 200 nM:Acetonitrile:Water.

SMILES	activation at 3.33 µM [1] [%]	pEC50 [1]	solubility kinetic at 90 min [2] [µg/mL]	logD [3]
CC(C)(C)NC(=O)c1cc(NC(=O)Cc2cc(O)c(C3(C)CC3)cc2F)ccn1 [Example 8, N-tert-Butyl-4-[[2-[2-fluoro-5-hydroxy-4-(1-methylcyclopropyl)phenyl]acetyl]amino]pyridine-2-carboxamide]	240	7.34	37 (≈ 92.6 µM)	> 4
C#CC(C)(C)NC(=O)c1cc(NC(=O)Cc2cc(O)c(C(C)(C)C)cc2F)ccn1 [Example 1.1]	118	7.59	6 (≈ 14.6 µM)	> 4
C#CC1(NC(=O)c2cc(NC(=O)Cc3cc(O)c(C(C)(C)C)cc3F)ccn2)CCCC1 [Example 1.2]	149	7.35	3 (≈ 6.86 µM)	> 4.5
CC(C)(C)c1cc(F)c(CC(=O)Nc2ccnc(C(=O)NC3(C#N)CC3)c2)cc1O [Example 1.5]	148	7.19	11 (≈ 26.8 µM)	3.7
CC(C)(C#N)c1cc(F)c(CC(=O)Nc2ccnc(C(=O)NC3(C(F)(F)F)CC3)c2)cc1O [Example 2.3, 4-[[2-[4-(1-Cyano-1-methyl-ethyl)-2-fluoro-5-hydroxy-phenyl]acetyl]amino]-N-[1-(trifluoromethyl)cyclopropyl]pyridine-2-carboxamide]	72.1	7.28	69 (≈ 149 µM)	2.9
CC(C)(C#N)NC(=O)c1cc(NC(=O)Cc2cc(O)c(C(C)(O)C(F)(F)F)cc2F)ccn1 (centres unmarked) [Example 2.7, N-(1-Cyano-1-methyl-ethyl)-4-[[2-[2-fluoro-5-hydroxy-4-(2,2,2-trifluoro-1-hydroxy-1-methyl-ethyl)phenyl]acetyl]amino]pyridine-2-carboxamide]	309	6.66	164 (≈ 350 µM)	3
CC(C)(C#N)NC(=O)c1cc(NC(=O)Cc2cc(O)c(C(C)(C)CN3CCOCC3)cc2F)ccn1 [Example 2.5, N-(1-Cyano-1-methyl-ethyl)-4-[[2-[4-(1,1-dimethyl-2-morpholino-ethyl)-2-fluoro-5-hydroxy-phenyl]acetyl]amino]pyridine-2-carboxamide]	112	–	327 (≈ 657 µM)	2.7
[2H]c1c(O)c(C(C([2H])([2H])[2H])(C([2H])([2H])[2H])C([2H])([2H])[2H])cc(F)c1CC(=O)Nc1ccnc(C(=O)NC2(C#N)CC2)c1 [Example 4, N-(1-Cyanocyclopropyl)-4-[[2-[2-deuterio-6-fluoro-3-hydroxy-4-[2,2,2-trideuterio-1,1-bis(trideuteriomethyl)ethyl]phenyl]acetyl]amino]pyridine-2-carboxamide]	186	7.54	29 (≈ 69 µM)	3.8
CC(C)(C#N)NC(=O)c1cc(NC(=O)Cc2cc(O)c(C3(C(F)(F)F)CCO3)cc2F)ccn1 (centres unmarked) [Example 2.14, N-(1-Cyano-1-methyl-ethyl)-4-[[2-[2-fluoro-5-hydroxy-4-[2-(trifluoromethyl)oxetan-2-yl]phenyl]acetyl]amino]pyridine-2-carboxamide]	122	7.57	99 (≈ 206 µM)	–

Further lines, results first:

activation at 3.33 µM [1] [%]	pEC50 [1]	solubility kinetic at 90 min [2] [µg/mL]	logD [3]	SMILES
280	7.74	75 (≈ 154 µM)	3.6	CC(C)(CO)c1cc(F)c(CC(=O)Nc2ccnc(C(=O)NC3(C(F)(F)F)CC3)c2)c(F)c1O [Example 16.4, 4-[[2-[2,6-Difluoro-3-hydroxy-4-(2-hydroxy-1,1-dimethyl-ethyl)phenyl]acetyl]amino]-N-[1-(trifluoromethyl)cyclopropyl]pyridine-2-carboxamide]
250	7.24	256 (≈ 545 µM)	3.7	CC(C)(C)c1cc(Cl)c(CC(=O)Nc2ccnc(C(=O)NC3(C(F)(F)F)CC3)c2)cc1O [Example 10.1, 4-[[2-(4-tert-Butyl-2-chloro-5-hydroxy-phenyl)acetyl]amino]-N-[1-(trifluoromethyl)cyclopropyl]pyridine-2-carboxamide]
195	7.44	44 (≈ 91.3 µM)	> 4.2	CC1(NC(=O)c2cc(NC(=O)Cc3cc(O)c(C(C)(C)CO)cc3Cl)ccn2)CC(F)(F)C1 [Example 15.2, 4-[[2-[2-Chloro-5-hydroxy-4-(2-hydroxy-1,1-dimethyl-ethyl)phenyl]acetyl]amino]-N-(3,3-difluoro-1-methyl-cyclobutyl)pyridine-2-carboxamide]
252	7.28	11 (≈ 25.8 µM)	3.7	CC(C)(C)c1cc(Cl)c(CC(=O)Nc2ccnc(C(=O)NC3(C#N)CC3)c2)cc1O [Example 10.2, 4-[[2-(4-tert-Butyl-2-chloro-5-hydroxy-phenyl)acetyl]amino]-N-(1-cyanocyclopropyl)pyridine-2-carboxamide]
